Experimental data reported in EP2931723B1, “NEW BICYCLIC COMPOUNDS AND THEIR USE AS ANTIBACTERIAL AGENTS AND -LACTAMASE INHIBITORS” (Fedora Pharmaceuticals Inc., priority 2012, dated 2014).

Assays:
Test in all cases: MIC, antibacterial and synergistic activity
Assay type in all cases: cell-based
K.pneumo JMI 4109 [1] = conditions: K.pneumo JMI 4109 (SHV-1, SHV-12); substance alone
K. pneumo JMI 4088 [2] = conditions: K. pneumo JMI 4088 (KPC-3 (Cpase)); substance alone
E. coli JMI 4080 = tested on: E. coli JMI 4080
K. pneumo JMI 2673 [3] = conditions: K. pneumo JMI 2673 (CTX-M14 (ESBL)); substance alone
E. coli JMI 10767 = E. coli JMI 10767 (Wt)
P. aerug JMI 2686 = P. aerug JMI 2686 (KPC-2 (Cpase)); substance alone
E. coli JMI 11103 = tested on: E. coli JMI 11103
K. pneumo JMI 2699 = K. pneumo JMI 2699 (VIM-1, CTX-M3)
Experimental: (§1) In the Tables 10 - 12, compounds herein disclosed were tested in combination with various antibiotics against metallo β-lactamase producing bacteria. Table 3: Synergy of the inhibitor Ex. 1 (4 µg/mL) in combination with antibiotics

K.pneumo JMI 4109 [4] = conditions: K.pneumo JMI 4109 (SHV-1, SHV-12)
Experimental: as §1

K. pneumo JMI 4088 [5] = conditions: K. pneumo JMI 4088 (KPC-3 (Cpase))
Experimental: as §1

E. coli JMI 2665 = tested on: E. coli JMI 2665
Experimental: as §1

K. pneumo JMI 2673 [6] = conditions: K. pneumo JMI 2673 (CTX-M14 (ESBL))
Experimental: as §1

E. coli JMI 10768 [7] = conditions: E. coli JMI 10768 (CTX-M15 (Weak ESBL))
Experimental: as §1

K. pneumo JMI 2674 = K. pneumo JMI 2674 (CTX-M15 (ESBL)); substance alone
E. coli JMI 2692 = E. coli JMI 2692 (NDM-1, TEM-1, CTX-M-15)
Experimental: (§2) In the Tables 10 - 12, compounds herein disclosed were tested in combination with various antibiotics against metallo β-lactamase producing bacteria.

K. pneumo JMI 2693 = K. pneumo JMI 2693 (NDM-1 (Cpase))
Experimental: as §2

K. pneumo JMI 2697 = K. pneumo JMI 2697 (IMP-4 (Cpase))
Experimental: as §2

K. pneumo JMI 4106 = K. pneumo JMI 4106 (KPC-3, TEM-1, SHV-12, SHV-141)
E. coli JMI 10768 [8] = conditions: E. coli JMI 10768 (CTX-M15 (Weak ESBL)); Meropenem + inhibitor at 4 µg/mL
E. coli ATCC 25922 = E. coli ATCC 25922 (Wt)
A. baumanii JMI 2659 = A. baumanii JMI 2659 (Ges-14 (Cpase))
E.coli JMI 4103 = E.coli JMI 4103 (KPC-2, Tem-1, CMY-Type)
[9] = Meropenem + inhibitor at 4 µg/mL
[10] = Aztreonam + inhibitor at 4 µg/mL
[11] = Ceftazidime + inhibitor at 4 µg/mL

O=C(NNC(=O)[C@H]1CC[C@H]2CN1C(=O)N2OS(=O)(=O)O)C1CNC1 (stereo in doubt) [Ex. 9, (2R,5S)-N'-(azetidin-3-ylcarbonyl)-7-oxo-6-(sulfooxy)-1,6-diazabicyclo[3.2.1]octane-2-carbohydrazide]
MIC (K.pneumo JMI 4109 [1]): 4 µg/mL
MIC (K. pneumo JMI 4088 [2]): 16 µg/mL
MIC Aztreonam + inhibitor (E. coli JMI 4080; E. coli JMI 4080 (Tem-10), Aztreonam + inhibitor at 4 µg/mL): ≤0.06 µg/mL
MIC Ceftazidime + inhibitor (E. coli JMI 4080; E. coli JMI 4080 (Tem-10), Ceftazidime + inhibitor at 4 µg/mL): 0.25 µg/mL
MIC Meropenem + inhibitor (E. coli JMI 4080; E. coli JMI 4080 (Tem-10), Meropenem + inhibitor at 4 µg/mL): ≤0.03 µg/mL
MIC (E. coli JMI 4080; Escherichia coli, JMI4080, E. coli JMI 4080 (Tem-10), substance alone): 16 µg/mL
MIC (K. pneumo JMI 2673 [3]): > 16 µg/mL
MIC Meropenem + inhibitor (E. coli JMI 10767; [9]): ≤0.03 µg/mL
MIC (E. coli JMI 10767; Escherichia coli, JMI10767, substance alone): > 16 µg/mL
MIC (P. aerug JMI 2686): 16 µg/mL
MIC Aztreonam + inhibitor (E. coli JMI 11103; E. coli JMI 11103 (CTX-M15 (Intermediate ESBL)), Aztreonam + inhibitor at 4 µg/mL): ≤0.06 µg/mL
MIC Ceftazidime + inhibitor (E. coli JMI 11103; E. coli JMI 11103 (CTX-M15 (Intermediate ESBL)), Ceftazidime + inhibitor at 4 µg/mL): ≤0.25 µg/mL
MIC Meropenem + inhibitor (E. coli JMI 11103; E. coli JMI 11103 (CTX-M15 (Intermediate ESBL)), Meropenem + inhibitor at 4 µg/mL): ≤0.03 µg/mL
MIC (E. coli JMI 11103; Escherichia coli, JMI11103, E. coli JMI 11103 (CTX-M15 (Intermediate ESBL)), substance alone): > 16 µg/mL
MIC Aztreonam + inhibitor (K. pneumo JMI 2699; [10]): 0.06 µg/mL
MIC Ceftazidime + inhibitor (K. pneumo JMI 2699; [11]): ≤0.25 µg/mL
MIC Meropenem + inhibitor (K. pneumo JMI 2699; [9]): 0.5 µg/mL
MIC (K. pneumo JMI 2699; substance alone, read-out: MIC): > 16 µg/mL
MIC Aztreonam + inhibitor (K.pneumo JMI 4109 [4]; [10]): ≤0.06 µg/mL
MIC Ceftazidime + inhibitor (K.pneumo JMI 4109 [4]; [11]): ≤0.25 µg/mL
MIC Meropenem + inhibitor (K.pneumo JMI 4109 [4]; [9]): ≤0.03 µg/mL
MIC Aztreonam + inhibitor (K. pneumo JMI 4088 [5]; [10]): 0.5 µg/mL
MIC Ceftazidime + inhibitor (K. pneumo JMI 4088 [5]; [11]): ≤0.25 µg/mL
MIC Meropenem + inhibitor (K. pneumo JMI 4088 [5]; [9]): 0.06 µg/mL
MIC Aztreonam + inhibitor (E. coli JMI 2665; E. coli JMI 2665 (CMY-2 (Plasmid Cpase)), Aztreonam + inhibitor at 4 µg/mL): ≤0.06 µg/mL
MIC Ceftazidime + inhibitor (E. coli JMI 2665; E. coli JMI 2665 (CMY-2 (Plasmid Cpase)), Ceftazidime + inhibitor at 4 µg/mL): ≤0.25 µg/mL
MIC Meropenem + inhibitor (E. coli JMI 2665; E. coli JMI 2665 (CMY-2 (Plasmid Cpase)), Meropenem + inhibitor at 4 µg/mL): ≤0.03 µg/mL
MIC (E. coli JMI 2665; Escherichia coli, JMI2665): 8 µg/mL
MIC Aztreonam + inhibitor (K. pneumo JMI 2673 [6]; [10]): ≤0.06 µg/mL
MIC Ceftazidime + inhibitor (K. pneumo JMI 2673 [6]; [11]): ≤0.25 µg/mL
MIC Meropenem + inhibitor (K. pneumo JMI 2673 [6]; [9]): ≤0.03 µg/mL
MIC Aztreonam + inhibitor (E. coli JMI 10768 [7]; [10]): ≤0.06 µg/mL
MIC Ceftazidime + inhibitor (E. coli JMI 10768 [7]; [11]): ≤0.25 µg/mL
MIC (E. coli JMI 10768 [7]; Escherichia coli, JMI10768, substance alone): > 16 µg/mL
MIC (K. pneumo JMI 2674): > 16 µg/mL
MIC Aztreonam + inhibitor (E. coli JMI 2692; [10]): 1 µg/mL
MIC Ceftazidime + inhibitor (E. coli JMI 2692; [11]): >16 µg/mL
MIC Meropenem + inhibitor (E. coli JMI 2692; [9]): 0.125 µg/mL
MIC (E. coli JMI 2692; Escherichia coli, JMI2692, substance alone, read-out: MIC): 8 µg/mL
MIC Aztreonam + inhibitor (K. pneumo JMI 2693; [10]): 0.25 µg/mL
MIC Ceftazidime + inhibitor (K. pneumo JMI 2693; [11]): ≤0.25 µg/mL
MIC Meropenem + inhibitor (K. pneumo JMI 2693; [9]): 0.125 µg/mL
MIC (K. pneumo JMI 2693; substance alone): > 16 µg/mL
MIC Aztreonam + inhibitor (K. pneumo JMI 2697; [10]): ≤0.06 µg/mL
MIC Ceftazidime + inhibitor (K. pneumo JMI 2697; [11]): 8 µg/mL
MIC Meropenem + inhibitor (K. pneumo JMI 2697; [9]): 2 µg/mL
MIC (K. pneumo JMI 2697; substance alone): 16 µg/mL
MIC Aztreonam + inhibitor (K. pneumo JMI 4106; [10]): 0.5 µg/mL
MIC Ceftazidime + inhibitor (K. pneumo JMI 4106; [11]): ≤0.25 µg/mL
MIC Meropenem + inhibitor (K. pneumo JMI 4106; [9]): 0.125 µg/mL
MIC (K. pneumo JMI 4106; substance alone, read-out: MIC): 8 µg/mL
MIC Meropenem + inhibitor (E. coli JMI 10768 [8]): ≤0.03 µg/mL
MIC Aztreonam + inhibitor (E. coli ATCC 25922; [10]): ≤0.06 µg/mL
MIC Ceftazidime + inhibitor (E. coli ATCC 25922; [11]): ≤0.25 µg/mL
MIC Meropenem + inhibitor (E. coli ATCC 25922; [9]): ≤0.03 µg/mL
MIC (E. coli ATCC 25922; Escherichia coli, ATCC25922, substance alone): > 16 µg/mL
MIC Aztreonam + inhibitor (A. baumanii JMI 2659; [10]): >4 µg/mL
MIC Ceftazidime + inhibitor (A. baumanii JMI 2659; [11]): 16 µg/mL
MIC Meropenem + inhibitor (A. baumanii JMI 2659; [9]): 2 µg/mL
MIC (A. baumanii JMI 2659; Acinetobacter baumannii, JMI2659, substance alone, read-out: MIC): > 16 µg/mL
MIC Aztreonam + inhibitor (E.coli JMI 4103; [10]): ≤0.06 µg/mL
MIC Ceftazidime + inhibitor (E.coli JMI 4103; [11]): 0.5 µg/mL
MIC Meropenem + inhibitor (E.coli JMI 4103; [9]): 0.06 µg/mL
MIC (E.coli JMI 4103; Escherichia coli, JMI4103, substance alone): 16 µg/mL
